The test has as its system KRAS G12V dependent lung adenocarcinoma cell line, NCI-H441. Briefly: Cellular pERK (Thr202/Tyr204) FRET/HTRF assay. The format is cell-based. Conditions: Homo sapiens, NCI-H441, cellular pERK HTRF, NCI-H441 (KRAS G12V) cells. A digest of the protocol: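 NCI-H441, overnight plating → cpd 1 hr, 37 °C/5% CO2; DMSO neg ctrl. Lyse (phosphatase inhibitors), add donor/acceptor Abs, RT incubation, HTRF read. IC50 by curve fit.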
`C#Cc1c(F)ccc2cc(N)cc(-c3ncc4c(N5CCOCC6C(Cl)C65)nc(OC[C@@]56CCCN5CC(=C)C6)nc4c3C)c12` (stereo partly drawn) [Example 443, 4-(4-(8-chloro-5-oxa-2-azabicyclo[5.1.0]octan-2-yl)-8-methyl-2-(((S)-2-methylenetetrahydro-1H-pyrrolizin-7a(5H)-yl)methoxy)pyrido[4,3-d]pyrimidin-7-yl)-5-ethynyl-6-fluoronaphthalen-2-amine] yielded an IC50 below 50 nM.
Take `C#Cc1c(F)ccc2cc(N)cc(-c3ncc4c(N5CCOCC6C(Cl)C65)nc(OC[C@]56CC(=C)CN5CCC65CC5)nc4c3C)c12` (stereo partly drawn) [Example 444, 4-(4-(8-chloro-5-oxa-2-azabicyclo[5.1.0]octan-2-yl)-8-methyl-2-(((R)-6′-methylenetetrahydrospiro[cyclopropane-1,1′-pyrrolizin]-7a′(5′H)-yl)methoxy)pyrido[4,3-d]pyrimidin-7-yl)-5-ethynyl-6-fluoronaphthalen-2-amine]: the IC50 is below 50 nM.
For `[2H]C([2H])(Oc1nc(N2CCOC[C@H]3[C@H](F)[C@H]32)c2cnc(-c3cc(O)cc4ccc(F)c(C#C)c34)c(C)c2n1)[C@@]12CCCN1C[C@H](F)C2` [Example 445, 5-Ethynyl-6-fluoro-4-(4-((1S,7S,8S)-8-fluoro-5-oxa-2-azabicyclo[5.1.0]octan-2-yl)-2-(((2R,7aS)-2-fluorotetrahydro-1H-pyrrolizin-7a(5H)-yl)methoxy-d2)-8-methylpyrido[4,3-d]pyrimidin-7-yl)naphthalen-2-ol], the IC50 is below 50 nM.
In turn, `[2H]C([2H])(Oc1nc(N2CCOC[C@H]3[C@H](F)[C@H]32)c2cnc(-c3cc(O)cc4ccc(F)c(C#C)c34)c(C)c2n1)[C@@]12CCCN1CC(=C)C2` [Example 446, 5-Ethynyl-6-fluoro-4-(4-((1S,7S,8S)-8-fluoro-5-oxa-2-azabicyclo[5.1.0]octan-2-yl)-8-methyl-2-(((S)-2-methylenetetrahydro-1H-pyrrolizin-7a(5H)-yl)methoxy-d2)pyrido[4,3-d]pyrimidin-7-yl)naphthalen-2-ol] showed an IC50 below 50 nM.
`C#Cc1c(F)ccc2cc(O)cc(-c3ncc4c(N5CCOC[C@H]6[C@H](F)[C@H]65)nc(OC[C@@]56CCCN5C/C(=C/F)C6)nc4c3C)c12` [Example 447, 5-ethynyl-6-fluoro-4-(4-((1S,7S,8S)-8-fluoro-5-oxa-2-azabicyclo[5.1.0]octan-2-yl)-2-(((S,E)-2-(fluoromethylene)tetrahydro-1H-pyrrolizin-7a(5H)-yl)methoxy)-8-methylpyrido[4,3-d]pyrimidin-7-yl)naphthalen-2-ol] came in with an IC50 below 50 nM.
The result for `[2H]C([2H])(Oc1nc(N2CCOC[C@H]3[C@H](F)[C@H]32)c2cnc(-c3cc(O)cc4ccc(F)c(C#C)c34)c(C)c2n1)[C@]12CC(=C)CN1CCC21CC1` [Example 448, 5-Ethynyl-6-fluoro-4-(4-((1S,7S,8S)-8-fluoro-5-oxa-2-azabicyclo[5.1.0]octan-2-yl)-8-methyl-2-(((R)-6′-methylenetetrahydrospiro[cyclopropane-1,1′-pyrrolizin]-7a′(5′H)-yl)methoxy-d2)pyrido[4,3-d]pyrimidin-7-yl)naphthalen-2-ol] reads below 50 nM.
The result for `C#Cc1c(F)ccc2cc(O)cc(-c3ncc4c(N5CCOC[C@H]6[C@H](F)[C@H]65)nc(OC[C@]56C/C(=C/F)CN5CCC65CC5)nc4c3C)c12` [Example 449, 5-ethynyl-6-fluoro-4-(4-((1S,7S,8S)-8-fluoro-5-oxa-2-azabicyclo[5.1.0]octan-2-yl)-2-(((R,Z)-6′-(fluoromethylene)tetrahydrospiro[cyclopropane-1,1′-pyrrolizin]-7a′(5′H)-yl)methoxy)-8-methylpyrido[4,3-d]pyrimidin-7-yl)naphthalen-2-ol] reads below 50 nM; that for `[2H]C([2H])(Oc1nc(N2CCOC[C@H]3[C@H](F)[C@H]32)c2cnc(-c3cc(N)cc4ccc(F)c(C#C)c34)c(C3CC3)c2n1)[C@@]12CCCN1C[C@H](F)C2` [Example 452, 4-(8-cyclopropyl-4-((1S,7S,8S)-8-fluoro-5-oxa-2-azabicyclo[5.1.0]octan-2-yl)-2-(((2R,7aS)-2-fluorotetrahydro-1H-pyrrolizin-7a(5H)-yl)methoxy-d2)pyrido[4,3-d]pyrimidin-7-yl)-5-ethynyl-6-fluoronaphthalen-2-amine], 500 to 10000 nM.
The result for `[2H]C([2H])(Oc1nc(N2CCOC[C@H]3[C@H](F)[C@H]32)c2cnc(-c3cc(N)cc4ccc(F)c(C#C)c34)c(C=C)c2n1)[C@@]12CCCN1C[C@H](F)C2` [Example 455, 5-ethynyl-6-fluoro-4-(4-((1S,7S,8S)-8-fluoro-5-oxa-2-azabicyclo[5.1.0]octan-2-yl)-2-(((2R,7aS)-2-fluorotetrahydro-1H-pyrrolizin-7a(5H)-yl)methoxy-d2)-8-vinylpyrido[4,3-d]pyrimidin-7-yl)naphthalen-2-amine] reads below 50 nM; that for `[2H]C([2H])(Oc1nc(N2CCOC[C@H]3[C@H](F)[C@H]32)c2cnc(-c3cc(N)cc4ccc(F)c(C#C)c34)c(CC)c2n1)[C@@]12CCCN1C[C@H](F)C2` [Example 456, 4-(8-Ethyl-4-((1S,7S,8S)-8-fluoro-5-oxa-2-azabicyclo[5.1.0]octan-2-yl)-2-(((2R,7aS)-2-fluorotetrahydro-1H-pyrrolizin-7a(5H)-yl)methoxy-d2)pyrido[4,3-d]pyrimidin-7-yl)-5-ethynyl-6-fluoronaphthalen-2-amine], below 50 nM.
`[2H]C([2H])(Oc1nc(N2CCCC[C@H]3[C@H](F)[C@H]32)c2cnc(-c3cc(N)cc4ccc(F)c(C#C)c34)c(C)c2n1)[C@@]12CCCN1CC(=C)C2` [Example 457, 5-Ethynyl-6-fluoro-4-(4-((1S,7R,8S)-8-fluoro-2-azabicyclo[5.1.0]octan-2-yl)-8-methyl-2-(((S)-2-methylenetetrahydro-1H-pyrrolizin-7a(5H)-yl)methoxy-d2)pyrido[4,3-d]pyrimidin-7-yl)naphthalen-2-amine] showed an IC50 below 50 nM.
Turning to `[2H]C([2H])(Oc1nc(N2CCCC[C@H]3[C@H](F)[C@H]32)c2cnc(-c3cc(N)cc4ccc(F)c(C#C)c34)c(C)c2n1)[C@]12CC(=C)CN1CCC21CC1` [Example 458, 5-Ethynyl-6-fluoro-4-(4-((1S,7R,8S)-8-fluoro-2-azabicyclo[5.1.0]octan-2-yl)-8-methyl-2-(((R)-6′-methylenetetrahydrospiro[cyclopropane-1,1′-pyrrolizin]-7a′(5′H)-yl)methoxy-d2)pyrido[4,3-d]pyrimidin-7-yl)naphthalen-2-amine], the IC50 is below 50 nM.
Turning to `C#Cc1c(F)ccc2cc(N)cc(-c3ncc4c(N5CCOC[C@H]6[C@H](Cl)[C@H]65)nc(OC[C@]56CC(=C)CN5CCC65CC5)nc4c3C)c12` [Example 459, 4-(4-((1S,7S,8S)-8-Chloro-5-oxa-2-azabicyclo[5.1.0]octan-2-yl)-8-methyl-2-(((R)-6′-methylenetetrahydrospiro[cyclopropane-1,1′-pyrrolizin]-7a′(5′H)-yl)methoxy)pyrido[4,3-d]pyrimidin-7-yl)-5-ethynyl-6-fluoronaphthalen-2-amine], the IC50 is below 50 nM.
